According to ChEMBL document CHEMBL5030536, “Subtle Chemical Changes Cross the Boundary between Agonist and Antagonist: New A3 Adenosine Receptor Homology Models and Structural Network Analysis Can Predict This Boundary” (J Med Chem, 2021):
pKi: −log10 of the molar value.

Columns and labels:
Adenosine receptor A1 = biological target: T1, Adenosine receptor A1 (Homo sapiens, UniProt P30542); test: Displacement of [3H]R-PIA from recombinant human A1 adenosine receptor expressed in CHO cell membrane incubated for 60 mins by liquid scintillation counting method; type: cell membranes
T1 sequence (P30542 whole entry): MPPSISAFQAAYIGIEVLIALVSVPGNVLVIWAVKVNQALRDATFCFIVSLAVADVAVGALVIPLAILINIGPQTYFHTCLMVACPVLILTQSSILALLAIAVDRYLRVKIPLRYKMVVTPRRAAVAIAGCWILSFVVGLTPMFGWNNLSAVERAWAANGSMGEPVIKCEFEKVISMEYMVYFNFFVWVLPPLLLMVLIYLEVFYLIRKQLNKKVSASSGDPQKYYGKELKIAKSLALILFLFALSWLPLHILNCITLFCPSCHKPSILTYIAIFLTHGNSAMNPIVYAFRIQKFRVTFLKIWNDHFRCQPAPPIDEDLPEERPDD

Adenosine receptor A2a = Adenosine receptor A2a (Homo sapiens, UniProt P29274); test: Displacement of [3H]CGS21680 from recombinant human A2A adenosine receptor expressed in HEK293 cells incubated for 60 mins by liquid scintillation counting method; type: cell-based
Adenosine receptor A3 = biological target: T2, Adenosine receptor A3 (Homo sapiens, UniProt P0DMS8); test: Displacement of [125I]AB-MECA from human A3 adenosine receptor expressed in CHO cell membrane incubated for 60 mins by gamma counter method; type: cell membranes
T2 sequence (P0DMS8 whole entry): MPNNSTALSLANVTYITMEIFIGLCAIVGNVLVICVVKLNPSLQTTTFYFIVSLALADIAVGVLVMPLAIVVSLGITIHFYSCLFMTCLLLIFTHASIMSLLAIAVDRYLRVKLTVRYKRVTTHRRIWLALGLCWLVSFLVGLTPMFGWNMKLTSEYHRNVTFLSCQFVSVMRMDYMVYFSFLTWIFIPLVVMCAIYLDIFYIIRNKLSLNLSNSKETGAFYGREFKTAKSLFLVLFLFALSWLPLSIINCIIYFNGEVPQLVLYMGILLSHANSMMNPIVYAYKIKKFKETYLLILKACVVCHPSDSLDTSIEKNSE

Adenosine receptor A2a, sequence (P29274 whole entry): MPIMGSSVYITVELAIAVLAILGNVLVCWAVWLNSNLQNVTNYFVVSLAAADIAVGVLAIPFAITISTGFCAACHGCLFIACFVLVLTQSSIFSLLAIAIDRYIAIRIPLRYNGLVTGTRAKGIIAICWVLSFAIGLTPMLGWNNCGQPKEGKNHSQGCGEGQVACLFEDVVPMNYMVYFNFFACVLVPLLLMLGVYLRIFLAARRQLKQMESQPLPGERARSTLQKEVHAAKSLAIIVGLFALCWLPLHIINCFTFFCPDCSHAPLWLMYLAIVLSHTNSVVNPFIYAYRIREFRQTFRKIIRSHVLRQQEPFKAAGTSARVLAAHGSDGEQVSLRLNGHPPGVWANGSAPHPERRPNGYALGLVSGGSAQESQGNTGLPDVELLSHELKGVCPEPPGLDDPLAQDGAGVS

Structure (SMILES): CNc1ncnc2c1ncn2[C@@H]1SC[C@@H](N)[C@H]1O
- pKi (Adenosine receptor A1): 5.78

Structure (SMILES): N[C@@H]1CS[C@@H](n2cnc3c(NCc4cccc(I)c4)nc(Cl)nc32)[C@@H]1O
- pKi (Adenosine receptor A1): 5.66
- pKi (Adenosine receptor A2a): 5.62
- pKi (Adenosine receptor A3): 6.42

Structure (SMILES): N[C@@H]1CS[C@@H](n2cnc3c(NCc4cccc(I)c4)ncnc32)[C@@H]1O
- pKi (Adenosine receptor A1): 5.61
- pKi (Adenosine receptor A2a): 5.64
- pKi (Adenosine receptor A3): 6.59
